From US12728119B2, “Pharmaceutical composition for preventing or treating cancer comprising 3-ketoacyl CoA thiolase inhibitor and carnitine acylcarnitine carrier inhibitor” (NATIONAL CANCER CENTER, priority 2020, dated 2026)
Where “and” joins values, the source holds several entries; their conditions need not be identical. Equal entries are not always repeated.

How the values were obtained:
Assay type in all cases: cell-based
[1] = test system: SU.86.86 pancreatic cancer cells; test: SRB analysis 2; conditions: 48 hours
Procedure: (§1) The SRB assay was performed as follows: each cell line (100 μl) was seeded into 96-well microtiter plates at densities ranging from 5,000 to 20,000 cells/well depending on the doubling time of each cell line. After cell seeding, microtiter plates were incubated for 24 h before addition of experimental drug. Drugs were prepared at the indicated concentrations and 100 μl was added to each well; The plates were then incubated in a CO2 incubator. Then, cold TCA was added to terminate the assay. Cells were fixed in situ by gentle addition of 50 μl of cold 50% (w/v) TCA (final concentration: 10% TCA) and incubated at 4° C. for 60 min. The supernatant was discarded and the plate was washed 5 times with tap water and then air dried. A solution (100 μl) of 0.4% (w/v) SRB (Sulforhodamine B) in 1% acetic acid was added to each well, and the plate was left at room temperature for 10 minutes. After staining, the plates were air dried after washing 5 times with 1% acetic acid to remove unbound dye. The bound dye was then solubilized with 10 mM trizma base and the absorbance was recorded at 515 nm using an automated plate reader.

[2] = test system: Panc-1 pancreatic cancer cells; test: SRB analysis 2; conditions: 48 hours
Procedure: as §1

[3] = test system: AsPC-1 pancreatic cancer cells; test: SRB analysis 2; conditions: 48 hours
Procedure: as §1

[4] = test system: MIA PaCa2 pancreatic cancer cells; test: SRB analysis 2; conditions: MIA PaCa-2, 48 hours
Procedure: as §1

[5] = test system: SNU-324 pancreatic cancer cells; test: SRB analysis 2; conditions: SNU324, 48 hours
Procedure: as §1

[6] = test system: SNU-213 pancreatic cancer cells; test: SRB analysis 2; conditions: SNU213, 48 hours
Procedure: as §1

[7] = test system: BxPC-3 pancreatic cancer cells; test: SRB analysis 2; conditions: 48 hours
Procedure: as §1

[8] = test system: SW1990 pancreatic cancer cells; test: SRB analysis 2; conditions: 48 hours
Procedure: as §1

[9] = test system: H1975 non-small cell lung cancer (NSCLC) cell line; test: SRB analysis 3; conditions: Paclitaxel 10 nM, 48 hours
Procedure: (§2) Through SRB analysis (n=3), the effect of triple combination treatment of a CAC inhibitor (KN510: omeprazole), ACAA inhibitor (KN713: trimetazidine) and other anticancer drug on cell growth in the cancer cells was analyzed. (see Table 11).
(§3) The SRB assay was performed as follows: each cell line (100 μl) was seeded into 96-well microtiter plates at densities ranging from 5,000 to 40,000 cells/well depending on the doubling time of each cell line. After 24 hours, drug (100 μl per well) was added to each well and the culture was incubated at 37° C. for 48 hours. Cells were then fixed in 50% TCA (50 μl per well) and plates were incubated at 4° C. for a minimum of 1 hour or a maximum of 3 hours. After that, the liquid was removed from the plate, then rinsed 5 times with water and dried for approximately 12-24 hours at room temperature (RT). After the fixed cells were stained with 0.4% SRB (100 μl per well) for 10 minutes at room temperature, the plates were washed 3 times with 1% glacial acetic acid and dried at room temperature for about 12-24 hours. SRB staining was dissolved in 10 mM Trizma base and absorbance was read at 515 nm. The effect of the drug was expressed as GI50 (50% growth inhibition), TGI (total growth inhibition) or LC50 (lethal concentration). GI50 is the maximum concentration at the moment of 50% inhibition of cell proliferation and IC50 is the concentration of the drug that inhibits the enzyme activity in vitro by 50% in this study.

[10] = test system: ACHN renal cancer cell line; test: SRB analysis 3; conditions: Paclitaxel 10 nM, 48 hours
Procedure: as §2, §3

[11] = test system: HCT-116 colon cancer cell line; test: SRB analysis 3; conditions: Paclitaxel 10 nM, 48 hours
Procedure: as §2, §3

[12] = test system: MKN45 gastric cancer cell line; test: SRB analysis 3; conditions: MKN-45; Paclitaxel 20 nM; 48 hours
Procedure: as §2, §3

[13] = test system: COLO-205 colon cancer cell line; test: SRB analysis 3; conditions: Paclitaxel 10 nM, 48 hours
Procedure: as §2, §3

[14] = test system: Huh-7 liver cancer cell line; test: SRB analysis 3; conditions: Paclitaxel 10 μM, 48 hours
Procedure: as §2, §3

[15] = test system: AsPC-1 pancreatic cancer (PDAC) cell line; test: SRB analysis 3; conditions: Paclitaxel 10 nM, 48 hours
Procedure: as §2, §3

[16] = test system: MCF7 breast cancer cell line; test: SRB analysis 3; conditions: Paclitaxel 10 μM, 48 hours
Procedure: as §2, §3

[17] = test system: OVCAR-8 ovarian cancer cell line; test: SRB analysis 3; conditions: Paclitaxel 10 μM, 48 hours
Procedure: as §2, §3

[18] = test system: SK-hep-1 liver cancer cell line; test: SRB analysis 3; conditions: Paclitaxel 10 μM, 48 hours
Procedure: as §2, §3

[19] = test system: A549 non-small cell lung cancer (NSCLC) cell line; test: SRB analysis 3; conditions: Paclitaxel 10 nM, 48 hours
Procedure: as §2, §3

[20] = test system: AGS gastric cancer cell line; test: SRB analysis 3; conditions: Paclitaxel 20 nM, 48 hours
Procedure: as §2, §3

[21] = test system: UACC62 melanoma cell line; test: SRB analysis 3; conditions: Paclitaxel 10 nM, 48 hours
Procedure: as §2, §3

[22] = test system: MDA-MB-231 breast cancer cell line; test: SRB analysis 3; conditions: Paclitaxel 10 μM, 48 hours
Procedure: as §2, §3

[23] = test system: SK-OV-3 ovarian cancer cell line; test: SRB analysis 3; conditions: Paclitaxel 10 μM, 48 hours
Procedure: as §2, §3

A375 melanoma cell line = test: SRB analysis 3; conditions: Paclitaxel 10 nM, 48 hours
Procedure: as §2, §3

[24] = test system: PC-3 prostate cancer cell line; test: SRB analysis 3; conditions: Paclitaxel 10 nM, 48 hours
Procedure: as §2, §3

[25] = test system: Caki-1 renal cancer cell line; test: SRB analysis 3; conditions: Paclitaxel 10 nM, 48 hours
Procedure: as §2, §3

[26] = test system: DU145 prostate cancer cell line; test: SRB analysis 3; conditions: Paclitaxel 10 nM, 48 hours
Procedure: as §2, §3

[27] = test system: MIA PaCa-2 pancreatic cancer (PDAC) cell line; test: SRB analysis 3; conditions: Paclitaxel 10 nM, 48 hours
Procedure: as §2, §3

[28] = test system: U87MG glioblastoma (GBM) cell line; test: SRB analysis 3; conditions: Paclitaxel 10 nM, 48 hours
Procedure: as §3, with “Through SRB analysis (n=3), the effect of triple combination treatment of a CAC inhibitor ([…] inhibitor (KN713: trimetazidine) and other anticancer drug on cell growth in the cancer cells was analyzed. (see Table 11). The” for “The”, “nm.” for “nm. The effect of the drug was expressed as GI50 (50% growth inhibition), TGI (total growth inhibition) or LC50 (lethal concentration). GI50 is the maximum concentration at the moment of 50% inhibition of cell proliferation and IC50 is the concentration of the drug that inhibits the enzyme activity in vitro by 50% in this study.”

[29] = test system: T87G glioblastoma (GBM) cell line; test: SRB analysis 3; conditions: Paclitaxel 10 nM, 48 hours
Procedure: as §3, with “Through SRB analysis (n=3), the effect of triple combination treatment of a CAC inhibitor ([…] inhibitor (KN713: trimetazidine) and other anticancer drug on cell growth in the cancer cells was analyzed. (see Table 11). The” for “The”, “nm.” for “nm. The effect of the drug was expressed as GI50 (50% growth inhibition), TGI (total growth inhibition) or LC50 (lethal concentration). GI50 is the maximum concentration at the moment of 50% inhibition of cell proliferation and IC50 is the concentration of the drug that inhibits the enzyme activity in vitro by 50% in this study.”

cancer cells = test: SRB analysis 3, triple combination, summary over cancer panels
Procedure: as §2, §3

Cc1c(OCC(F)(F)F)ccnc1C[S+]([O-])c1nc2ccccc2[nH]1 (centres unmarked) [KN511, lansoprazole]
degree of cell growth based on the control (100%) ([1]; KN511 50 μM): 44.93% and 31.47%
degree of cell growth based on the control (100%) ([2]; KN511 50 μM): 65.77% and 39.30%
degree of cell growth based on the control (100%) ([3]; KN511 50 μM): 44.46% and 38.02%
degree of cell growth based on the control (100%) ([3]; KN511 100 μM): 20.33% and 14.98%
degree of cell growth based on the control (100%) ([4]; KN511 50 μM): 72.22% and 68.24%
degree of cell growth based on the control (100%) ([4]; KN511 100 μM): 24.61% and 16.12%
degree of cell growth based on the control (100%) ([5]; KN511 50 μM): 16.15% and 17.09%
degree of cell growth based on the control (100%) ([5]; KN511 100 μM): 4.93% and 8.06%
degree of cell growth based on the control (100%) ([6]; KN511 50 μM): 46.12% and 49.55%
degree of cell growth based on the control (100%) ([7]; KN511 50 μM): 30.51% and 41.39%
degree of cell growth based on the control (100%) ([7]; KN511 100 μM): −4.87% and −1.66%
degree of cell growth based on the control (100%) ([8]; KN511 50 μM): 2.62% and 7.49%
degree of cell growth based on the control (100%) ([8]; KN511 100 μM): −25.25%

COc1ccnc(C[S+]([O-])c2nc3ccc(OC(F)F)cc3[nH]2)c1OC (centres unmarked) [KN512, pantoprazole]
degree of cell growth based on the control (100%) ([1]; KN512 100 μM): 59.26% and 70.59%
degree of cell growth based on the control (100%) ([1]; KN512 200 μM): 19.69% and 26.47%
degree of cell growth based on the control (100%) ([2]; KN512 100 μM): 54.90% and 57.01%
degree of cell growth based on the control (100%) ([2]; KN512 200 μM): 6.03% and 12.81%
degree of cell growth based on the control (100%) ([3]; KN512 100 μM): 64.75% and 71.27%
degree of cell growth based on the control (100%) ([3]; KN512 200 μM): 23.37% and 25.43%
degree of cell growth based on the control (100%) ([4]; KN512 100 μM): 62.60% and 66.74%
degree of cell growth based on the control (100%) ([4]; KN512 200 μM): 5.82% and 1.98%
degree of cell growth based on the control (100%) ([5]; KN512 100 μM): 61.20% and 74.13%
degree of cell growth based on the control (100%) ([5]; KN512 200 μM): 23.82% and 21.77%
degree of cell growth based on the control (100%) ([6]; KN512 100 μM): 66.09% and 59.49%
degree of cell growth based on the control (100%) ([6]; KN512 200 μM): 36.60% and 51.18%
degree of cell growth based on the control (100%) ([7]; KN512 100 μM): 34.14% and 49.52%
degree of cell growth based on the control (100%) ([7]; KN512 200 μM): −10.63% and −6.75%
degree of cell growth based on the control (100%) ([8]; KN512 100 μM): 70.30% and 73.00%
degree of cell growth based on the control (100%) ([8]; KN512 200 μM): 25.58% and 41.93%

CC(=O)O[C@H]1C(=O)[C@@]2(C)[C@H]([C@H](OC(=O)c3ccccc3)[C@]3(O)C[C@H](OC(=O)[C@H](O)[C@@H](NC(=O)c4ccccc4)c4ccccc4)C(C)=C1C3(C)C)[C@]1(OC(C)=O)CO[C@@H]1C[C@@H]2O [Paclitaxel]
cell growth (Control = 100) [9]: 45.06
cell growth (Control = 100) [10]: 105.2409
cell growth (Control = 100) [11]: 15.07
cell growth (Control = 100) [12]: 8.846
cell growth (Control = 100) [13]: −8.628
cell growth (Control = 100) [14]: 63.01
cell growth (Control = 100) [15]: 41.94
cell growth (Control = 100) [16]: 17.28
cell growth (Control = 100) [17]: 76.61
cell growth (Control = 100) [18]: 78.76
cell growth (Control = 100) [19]: 17.6
cell growth (Control = 100) [20]: 20.3903
cell growth (Control = 100) [21]: 65.90
cell growth (Control = 100) [22]: 70.48
cell growth (Control = 100) [23]: 62.41
cell growth (Control = 100) (A375 melanoma cell line): 40.20
cell growth (Control = 100) [24]: 47.85
cell growth (Control = 100) [25]: 128.124
cell growth (Control = 100) [26]: 46.381
cell growth (Control = 100) [27]: 16.4
cell growth (Control = 100) [28]: 28.87
cell growth (Control = 100) [29]: 56.70
Positive/Negative (triple combination of KN510, KN713 and the listed anticancer drug) (cancer cells; Breast Cancer, BT-549, MDA MB 231): Positive
Positive/Negative (triple combination of KN510, KN713 and the listed anticancer drug) (cancer cells; Colon Cancer, HT-29, COLO-205): Positive
Positive/Negative (triple combination of KN510, KN713 and the listed anticancer drug) (cancer cells; GBM, U87MG, T87G): Positive
Positive/Negative (triple combination of KN510, KN713 and the listed anticancer drug) (cancer cells; Liver Cancer, SNU-449, Huh-7): Positive
Positive/Negative (triple combination of KN510, KN713 and the listed anticancer drug) (cancer cells; NSCLC, A549, H522): Positive
Positive/Negative (triple combination of KN510, KN713 and the listed anticancer drug) (cancer cells; Ovarian Cancer, SK-OV-3, OVCAR-3): Positive
Positive/Negative (triple combination of KN510, KN713 and the listed anticancer drug) (cancer cells; PDAC, MIA PaCa-2, PANC-1): Positive
Positive/Negative (triple combination of KN510, KN713 and the listed anticancer drug) (cancer cells; Prostate Cancer, PC-3, DU-145): Positive
Positive/Negative (triple combination of KN510, KN713 and the listed anticancer drug) (cancer cells; Renal cell carcinoma, ACHN, CAKI-1): negative
Positive/Negative (triple combination of KN510, KN713 and the listed anticancer drug) (cancer cells; Stomach Cancer, MKN-28, AGS): Positive
Positive/Negative (triple combination of KN510, KN713 and the listed anticancer drug) (cancer cells; melanoma, UACC62, A375): Positive
